Tests used:
Assay in all cases: Example IV postemergence foliar-applied, greenhouse, cereal crops weeds
PHAMI = format: in vivo, Phalaris minor Retz.
Method: (§1) Seeds of the desired test plant species were planted in Sun Gro MetroMix® 306 planting mixture, which typically has a pH of 6.0 to 6.8 and an organic matter content of about 30 percent, in plastic pots with a surface area of 103.2 square centimeters (cm^2). […] The plants were grown for 7-36 days in a greenhouse with an approximate 14 hour photoperiod which was maintained at about 18° C. during the day and about 17° C. during the night. Nutrients and water were added on a regular basis and supplemental lighting was provided with overhead metal halide 1000-Watt lamps as necessary. The plants were employed for testing when they reached the second or third true leaf stage.
(§2) Treatments consisted of the benzyl ester of 4-amino-3-chloro-5-fluoro-6-(4-chloro-2-fluoro-3-methoxy-phenyl)pyridine-2-carboxylic acid (Compound A), formulated as an SC, a second cereal herbicide alone and then both in combination.
(§3) Other herbicidal components were applied on an active ingredient basis and included acetyl-CoA carboxylase (ACCase)-inhibiting herbicides clodinafop-propargyl, fenoxaprop-P-ethyl, pinoxaden and tralkoxydim.
(§4) Measured aliquots of benzyl ester of 4-amino-3-chloro-5-fluoro-6-(4-chloro-2-fluoro-3-methoxy-phenyl)pyridine-2-carboxylic acid (Compound A) were placed in 25 milliliter (mL) glass vials and diluted in a volume of 1.25% (v/v) Agri-Dex® crop oil concentrate to obtain stock solutions. Compound requirements are based upon a 12 mL application volume at a rate of 187 liters per hectare (L/ha). […] Formulated compounds were applied to the plant material with an overhead Mandel track sprayer equipped with an 8002E nozzle calibrated to deliver 187 L/ha over an application area of 0.503 square meters (m^2) at a spray height of 18 inches (46 cm) above average plant canopy. Control plants were sprayed in the same manner with the solvent blank.
(§5) The treated plants and control plants were placed in a greenhouse as described above and watered by sub-irrigation to prevent wash-off of the test compounds. After 20-22 days, the condition of the test plants as compared with that of the control plants was determined visually and scored on a scale of 0 to 100 percent where 0 corresponds to no injury and 100 corresponds to complete kill.
(§6) Colby's equation was used to determine the herbicidal effects expected from the mixtures (Colby, S. R. 1967. Calculation of the synergistic and antagonistic response of herbicide combinations. Weeds 15:20-22.).
(§7) The following equation was used to calculate the expected activity of mixtures containing two active ingredients, A and B: Expected=A+B−(A×B/100)

KCHSC = format: in vivo, Kochia scoparia (L.) Schrad.
Method: as §1, §2, §3, §4, §5, §6, §7

ALOMY = format: in vivo, Alopecurus myosuroides Huds.
Method: (§8) Seeds of the desired test plant species were planted in Sun Gro MetroMix® 306 planting mixture, which typically has a pH of 6.0 to 6.8 and an organic matter content of about 30 percent, in plastic pots with a surface area of 103.2 square centimeters (cm^2). When required to ensure good germination and healthy plants, a fungicide treatment and/or other chemical or physical treatment was applied. The plants were grown for 7-36 days in a greenhouse with an approximate 14 hour photoperiod which was maintained at about 18° C. during the day and about 17° C. during the night. Nutrients and water were added on a regular basis and supplemental lighting was provided with overhead metal halide 1000-Watt lamps as necessary. The plants were employed for testing when they reached the second or third true leaf stage.
as §2, §3
(§9) Measured aliquots of benzyl ester of 4-amino-3-chloro-5-fluoro-6-(4-chloro-2-fluoro-3-methoxy-phenyl)pyridine-2-carboxylic acid (Compound A) were placed in 25 milliliter (mL) glass vials and diluted in a volume of 1.25% (v/v) Agri-Dex® crop oil concentrate to obtain stock solutions. Compound requirements are based upon a 12 mL application volume at a rate of 187 liters per hectare (L/ha). Spray solutions of the second cereal herbicide and experimental compound mixtures were prepared by adding the stock solutions to the appropriate amount of dilution solution to form 12 mL spray solution with active ingredients in two- and three-way combinations. Formulated compounds were applied to the plant material with an overhead Mandel track sprayer equipped with an 8002E nozzle calibrated to deliver 187 L/ha over an application area of 0.503 square meters (m^2) at a spray height of 18 inches (46 cm) above average plant canopy. Control plants were sprayed in the same manner with the solvent blank.
as §5, with “kill. […]” for “kill.”

LOLMU = format: in vivo, Lolium multiflorum Lam.
Method: as §8, §2, §3, §9, §5, §6, §7

APESV = format: in vivo, Apera spica-venti (L.) Beauv.
Method: as §1, §2, §3, §4, §5, §6, §7

C#CCOC(=O)[C@@H](C)Oc1ccc(Oc2ncc(Cl)cc2F)cc1 [Clodinafop-propargyl, 2-propynyl(2R)-2-[4-[(5-chloro-3-fluoro-2-pyridinyl)oxy]phenoxy]propanoate]
Visual Weed Control (%) - 21 DAA PHAMI Obs (PHAMI; Clodinafop-propargyl 15 gai/ha): 48%
Visual Weed Control (%) - 21 DAA PHAMI Obs (PHAMI; Clodinafop-propargyl 30 gai/ha): 55%
Visual Weed Control (%) - 21 DAA KCHSC Obs (KCHSC; Clodinafop-propargyl 15 gai/ha): 0%
Visual Weed Control (%) - 21 DAA KCHSC Obs (KCHSC; Clodinafop-propargyl 30 gai/ha): 10%
Visual Weed Control (%) - 21 DAA ALOMY Obs (ALOMY; Clodinafop-propargyl 15 gai/ha): 80%
Visual Weed Control (%) - 21 DAA ALOMY Obs (ALOMY; Clodinafop-propargyl 30 gai/ha): 82%
Visual Weed Control (%) - 21 DAA LOLMU Obs (LOLMU; Clodinafop-propargyl 15 gai/ha): 60%
Visual Weed Control (%) - 21 DAA LOLMU Obs (LOLMU; Clodinafop-propargyl 30 gai/ha): 48%
Visual Weed Control (%) - 21 DAA APESV Obs (APESV; Clodinafop-propargyl 15 gai/ha): 15%
Visual Weed Control (%) - 21 DAA APESV Obs (APESV; Clodinafop-propargyl 30 gai/ha): 68%

— patent publication US9232796B2, “Herbicidal compositions comprising 4-amino-3-chloro-5-fluoro-6-(4-chloro-2-fluoro-3-methoxyphenyl) pyridine-2-carboxylic acid or a derivative thereof and acetyl-CoA carboxylase (ACCase) inhibitors” (DOW AGROSCIENCES LLC, priority 2012, dated 2016)
